{"source": "patent US12263172B2", "about": "“Toll-like receptor agonists for use in the treatment of hepatitis b” (priority 2019, dated 2025)", "key": {"[1]": {"assay": "6-month toxicity study in rats", "conditions": "rat, in vivo", "text": "(§1) Exposure increased more than dose-proportionally at low doses. Variability in exposure was high. • In vitro plasma protein binding was between 79.6% and 94.2% in animals and humans. Volume of distribution after intravenous dosing was high. […] Main metabolic pathways were oxygenation, hydrogenation, dehydrogenation, dealkylation, acetylation, glucuronidation, and/or glutathione conjugation. • In rats, >80% of drug-related material was found in feces, 11% to 20% in bile, and <4% in urine. […] There were no effects on embryofetal development up to 1 mg/kg/dose in rats and 30 mg/kg/dose in rabbits."}, "genotoxic potential": {"assay": "genotoxic potential", "text": "as §1"}, "[2]": {"assay": "pharmacokinetics and excretion in rat", "format": "in vivo", "text": "as §1"}, "[3]": {"assay": "cardiovascular safety pharmacology in monkeys", "format": "in vivo", "conditions": "secondary to an increase in body temperature", "text": "as §1"}}}
{"smiles": "CCCCOc1nc(N)c2[nH]cc(Cc3ccc(CN4CCCC4)cc3)c2n1", "note": "[Compound 4]", "values": [{"measurement": "AUC(0-t)", "setting": "[1]; 1.0 mg/kg qw or q2w, read-out: AUC24h at NOAEL", "result": "16.6 to 27.3", "unit": "ng·h/mL"}, {"measurement": "Cmax", "setting": "[1]; 1.0 mg/kg qw or q2w, read-out: Cmax at NOAEL", "result": "3.32 to 7.88", "unit": "ng/mL"}, {"measurement": "NOAEL at 6 months", "setting": "[1]; qw or q2w, 6 months", "result": 1, "unit": "mg/kg"}, {"measurement": "genotoxic potential", "setting": "genotoxic potential", "result": "free of genotoxic potential"}, {"measurement": "bioavailability", "setting": "[2]; rat, in vivo, po", "result": 15, "unit": "%"}, {"measurement": "drug-related material found in feces", "setting": "[2]; rats", "result": "> 80", "unit": "%"}, {"measurement": "drug-related material found in urine", "setting": "[2]; rats", "result": "< 4", "unit": "%"}, {"measurement": "heart rate and arterial blood pressure", "setting": "[3]", "result": "transient increase in heart rate and arterial blood pressure"}]}
